Measurements: patent US8828929B2 (priority 2008, dated 2014)
Where no end group is shown, it is not given here.

Experiments:
[1] = system: peptide-specific CTLs (IFN-γ-positive cells among CD8-positive cells); design: species or system HLA-A2 transgenic mouse; settings: mouse, in vivo
[2] = system: target cells pulsed with the peptide; design: species or system HLA-A2 transgenic mouse; settings: mouse, in vivo
HLA-A*0201 [3] = target: T1, HLA-A*0201 (Homo sapiens, UniProt P04439, /I218V/L300P/L318F/N151K/N90K/P208A/P217A/Q86G/Q94H/R138H/R169H/T345S); experiment: cell-based; assay type: binding
T1 construct: endogenous in cells; host or cells: T2 cells (human lymphoid, TAP-deficient)

HLA-A*0201 [4] = target: T2, HLA-A*0201 (Homo sapiens, UniProt P04439, D140Y/D185E/D98H/E176V/E277Q/G131W/G231S/I119V/I121R/I166T/I218V/L300P/L318F/N151K/N90K/P208A/P217A/Q86G/Q94H/R138H/R169H/T345S); experiment: cell-based; assay type: binding
T2 construct: endogenous in cells; host or cells: T2 cells (human lymphoid, TAP-deficient)

[5] = system: peptide-specific CTLs (IFN-γ-positive cells among CD8-positive cells); design: species or system HLA-A2 transgenic mouse; settings: mouse, in vivo; for ICS (% in CD8+ cells): iv

Compound | CTL induction activity [1] | CTL response activity [2] | peptide-specific lysis rates (%) of the target cells by CTLs [2] | Affinity (HLA-A*0201 [3]) | EC50 (HLA-A*0201 [4]) | induction of IFN-γ-positive cells among CD8-positive cells [5] | ICS (% in CD8+ cells) [5] | ratio (%) of IFN-γ-positive cells among CD8-positive cells [1]
CLDAGINYV [pp1a-2187] | higher than that of the CTL epitope peptide of the Spike protein | high CTL response activities | 79.2% | High (key: High: less than 100 μM; Medium: 100 to 200 μM; Low: more than 200 μM) | 3 µM | significantly induced IFN-γ-positive cells among CD8-positive cells | *0.19% | –
VLGSLAATV [pp1a-4219] | – | – | – | High (key: High: less than 100 μM; Medium: 100 to 200 μM; Low: more than 200 μM) | 53.3 µM | – | 0.01% | –
LLCVLAALV [pp1a-2755] | higher than that of the CTL epitope peptide of the Spike protein | high CTL response activities | 70.5% | – | 187 µM | significantly induced IFN-γ-positive cells among CD8-positive cells | *0.18% | –
YLSSVLLAL [pp1a-1652, YLSSVLLAL] | – | – | – | High (key: High: less than 100 μM; Medium: 100 to 200 μM; Low: more than 200 μM) | 6.7 µM | – | 0.05% | –
CC[C@H](C)[C@H](NC(=O)[C@H](CC(C)C)NC(=O)[C@H](CC(C)C)NC(=O)[C@H](CO)NC(=O)[C@@H](NC(=O)[C@H](CC(C)C)NC(=O)[C@@H](N)Cc1ccccc1)[C@@H](C)O)C(=O)N[C@@H](CC(C)C)C(=O)N[C@H](C(=O)O)C(C)C [pp1a-3564] | – | – | – | Medium (key: High: less than 100 μM; Medium: 100 to 200 μM; Low: more than 200 μM) | – | – | 0.06% | –
CC[C@H](C)[C@H](NC(=O)[C@@H](NC(=O)[C@H](CC(N)=O)NC(=O)[C@H](CCSC)NC(=O)[C@H](CC(C)C)NC(=O)[C@@H](N)[C@@H](C)O)C(C)C)C(=O)N[C@H](C(=O)N[C@@H](CC(C)C)C(=O)N[C@H](C(=O)O)C(C)C)[C@@H](C)O [pp1a-3687] | higher than that of the CTL epitope peptide of the Spike protein | – | – | High (key: High: less than 100 μM; Medium: 100 to 200 μM; Low: more than 200 μM) | – | significantly induced IFN-γ-positive cells among CD8-positive cells | *0.20% | –
SLQVCVQTV [pp1a-1139] | – | – | – | High (key: High: less than 100 μM; Medium: 100 to 200 μM; Low: more than 200 μM) | 4.9 µM | – | 0.07% | –
MLLTFLTSL [pp1a-3560] | – | – | – | High (key: High: less than 100 μM; Medium: 100 to 200 μM; Low: more than 200 μM) | 47.1 µM | – | 0.04% | –
CC[C@H](C)[C@H](NC(=O)[C@H](CC(=O)O)NC(=O)[C@H](Cc1ccccc1)NC(=O)[C@@H](NC(=O)CNC(=O)[C@@H](NC(=O)[C@@H](NC(=O)[C@H](CC(C)C)NC(=O)[C@@H](N)Cc1ccccc1)[C@@H](C)CC)[C@@H](C)O)C(C)C)C(=O)O [pp1a-651] | – | – | – | High (key: High: less than 100 μM; Medium: 100 to 200 μM; Low: more than 200 μM) | – | – | 0.02% | –
CC[C@H](C)[C@H](NC(=O)[C@H](CO)NC(=O)[C@H](CC(C)C)NC(=O)[C@H](CC(C)C)NC(=O)[C@H](CC(C)C)NC(=O)[C@H](CC(C)C)NC(=O)[C@H](Cc1c[nH]c2ccccc12)NC(=O)[C@H](CCSC)NC(=O)[C@H](C)N)C(=O)O [pp1a-2207] | higher than that of the CTL epitope peptide of the Spike protein | – | – | – | – | significantly induced IFN-γ-positive cells among CD8-positive cells | *0.48% | –
CC(C)C[C@H](NC(=O)[C@H](C)NC(=O)[C@H](C)NC(=O)[C@H](CC(C)C)NC(=O)[C@@H](NC(=O)[C@H](CS)NC(=O)[C@H](CC(C)C)NC(=O)[C@H](CC(C)C)NC(=O)[C@@H](N)[C@@H](C)O)C(C)C)C(=O)O [pp1a-2754, TLLCVLAAL] | – | – | – | High (key: High: less than 100 μM; Medium: 100 to 200 μM; Low: more than 200 μM) | – | – | 0.04% | –
FIAGLIAIV [spike-1203, reference compound] | – | – | – | – | – | – | – | 0.29%
LLFITGNTL [pp1a-3745] | – | – | – | Medium (key: High: less than 100 μM; Medium: 100 to 200 μM; Low: more than 200 μM) | 154 µM | – | 0.03% | –
QLSLPVLQV [pp1a-15] | – | – | – | High (key: High: less than 100 μM; Medium: 100 to 200 μM; Low: more than 200 μM) | 75.7 µM | – | 0.05% | –
CC(C)C[C@H](NC(=O)[C@H](CO)NC(=O)[C@@H]1CCCN1C(=O)[C@H](CC(C)C)NC(=O)[C@H](CC(C)C)NC(=O)[C@@H](N)Cc1ccccc1)C(=O)N[C@@H](C)C(=O)N[C@H](C(=O)N[C@H](C(=O)O)C(C)C)[C@@H](C)O [pp1a-3616] | – | – | – | High (key: High: less than 100 μM; Medium: 100 to 200 μM; Low: more than 200 μM) | – | – | 0.07% | –
VLLSVLQQL [pp1a-3848] | – | – | – | Medium (key: High: less than 100 μM; Medium: 100 to 200 μM; Low: more than 200 μM) | 102 µM | – | 0.07% | –
KLSAGVEFL [pp1a-634] | – | – | – | High (key: High: less than 100 μM; Medium: 100 to 200 μM; Low: more than 200 μM) | 59.8 µM | – | 0.08% | –
CC[C@H](C)[C@H](NC(=O)[C@@H](NC(=O)[C@H](CC(C)C)NC(=O)[C@H](C)NC(=O)[C@H](Cc1c[nH]c2ccccc12)NC(=O)[C@H](CCSC)NC(=O)[C@@H](N)CO)C(C)C)C(=O)N[C@@H](CO)C(=O)N[C@H](C(=O)O)C(C)C [pp1a-3709] | higher than that of the CTL epitope peptide of the Spike protein | especially high CTL response activity | 96.3% | High (key: High: less than 100 μM; Medium: 100 to 200 μM; Low: more than 200 μM) | – | significantly induced IFN-γ-positive cells among CD8-positive cells | *0.50% | –
ILLLDQVLV [pp1a-2546] | higher than that of the CTL epitope peptide of the Spike protein | – | – | High (key: High: less than 100 μM; Medium: 100 to 200 μM; Low: more than 200 μM) | 7.6 µM | significantly induced IFN-γ-positive cells among CD8-positive cells | *0.17% | –
CC(C)C[C@H](NC(=O)[C@@H](NC(=O)[C@@H](NC(=O)[C@@H](NC(=O)[C@H](Cc1ccccc1)NC(=O)[C@H](CCCNC(=N)N)NC(=O)[C@H](CC(N)=O)NC(=O)[C@H](CC(C)C)NC(=O)[C@@H](N)Cc1ccccc1)[C@@H](C)O)[C@@H](C)O)[C@@H](C)O)C(=O)O [pp1a-3459] | – | – | – | High (key: High: less than 100 μM; Medium: 100 to 200 μM; Low: more than 200 μM) | – | – | 0.03% | –
MLSRALKKV [pp1a-1288] | – | – | – | High (key: High: less than 100 μM; Medium: 100 to 200 μM; Low: more than 200 μM) | 65.1 µM | – | 0.05% | –
KLNIKLLGI [pp1a-3816] | – | – | – | High (key: High: less than 100 μM; Medium: 100 to 200 μM; Low: more than 200 μM) | 68.1 µM | – | 0.07% | –
CC(C)C[C@H](NC(=O)[C@H](Cc1c[nH]c2ccccc12)NC(=O)[C@H](C)NC(=O)[C@H](CC(C)C)NC(=O)[C@@H](N)C(C)C)C(=O)N[C@@H](Cc1ccc(O)cc1)C(=O)N[C@@H](C)C(=O)N[C@@H](C)C(=O)N[C@H](C(=O)O)C(C)C [pp1a-3444] | – | – | – | High (key: High: less than 100 μM; Medium: 100 to 200 μM; Low: more than 200 μM) | – | significantly induced IFN-γ-positive cells among CD8-positive cells | *0.12% | –
CC[C@H](C)[C@H](NC(=O)[C@H](CCC(=O)O)NC(=O)[C@H](CC(C)C)NC(=O)[C@H](CC(C)C)NC(=O)[C@H](CC(=O)O)NC(=O)[C@H](CCC(=O)O)NC(=O)[C@H](CC(N)=O)NC(=O)[C@H](CC(C)C)NC(=O)[C@@H](N)[C@@H](C)O)C(=O)O [pp1a-445] | – | – | – | High (key: High: less than 100 μM; Medium: 100 to 200 μM; Low: more than 200 μM) | – | – | 0.08% | –
TLGVLVPHV [pp1a-103] | – | – | – | High (key: High: less than 100 μM; Medium: 100 to 200 μM; Low: more than 200 μM) | 3.1 µM | – | 0.07% | –
